Assay results as given in patent EP4635969A1, “NOVEL GLUCOCORTICOID, METHOD FOR PREPARING SAME, AND USE THEREOF” (Tianjin Pharmaceutical Biotechnology Co., Ltd., priority 2022, dated 2024).
Like-named read-outs stand apart in the source and are kept apart here.

Columns and labels:
[1] = target: T1, mineralocorticoid receptor (MR) (Homo sapiens, UniProt P08235); assay: Assay for agonist activity on mineralocorticoid receptor (luciferase reporter, HEK293 cells transfected with pBIND-MR plasmid); type: cell-based; details: for Target selectivity MR/GR: ratio of EC50 values
T1 sequence (P08235 726-984): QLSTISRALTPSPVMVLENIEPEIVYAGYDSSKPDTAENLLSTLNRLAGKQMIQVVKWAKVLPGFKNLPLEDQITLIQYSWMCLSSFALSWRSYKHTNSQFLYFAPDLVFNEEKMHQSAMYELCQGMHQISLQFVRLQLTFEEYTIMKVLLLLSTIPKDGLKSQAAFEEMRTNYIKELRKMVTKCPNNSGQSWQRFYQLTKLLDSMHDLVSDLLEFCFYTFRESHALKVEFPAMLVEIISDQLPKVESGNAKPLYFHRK
Method in brief: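 HEK293 cells transiently transfected with pBIND-MR or pBIND-PR, seeded in phenol red-free DMEM with 5% charcoal-stripped serum. Compounds tested as 12-point 4-fold dilutions from 50 µM in duplicate, 0.1% DMSO blank. Luciferase luminescence read, EC50 by nonlinear fit.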

[2] = tested on: IL-17; assay: Psoriasis experiment (imiquimod model): inflammatory cytokine in serum (ELISA); type: in vivo, mice; details: for level of IL-17 / inflammatory cytokines in psoriasis model mice: compared with the model group; for IL-17: serum, day 8 of modeling, 0.2 g cream per mouse daily for 7 days
Procedure: (§1) Positive control drug: Fluticasone Propionate Cream (specification: 0.05% × 15 g, Zhejiang Xianju Pharmaceutical Co. Ltd., Lot No. 211106), stored at room temperature protected from light until use.
(§2) Adult mice were selected, and the skin of 2 cm × 3 cm on the back of mice was locally depilated. The mice in the model group and drug administration group were applied with 62.5 mg of 5% imiquimod cream on their back for modeling, while the mice in the blank control group were applied with medical petroleum jelly on their back daily. The above procedures were performed once a day for 7 consecutive days.
(§3) The mice in the drug administration group were applied with the corresponding drugs on their backs daily at a dose of 0.2 g per mouse, while the blank control group and the model group were only applied with 0.2 g of the test sample drug matrix. One hour after drug administration, the drugs were wiped off with sterile cotton swabs, followed by the application of imiquimod. The above procedures were performed once a day for 7 consecutive days.
After the PASI scoring on day 8 of modeling, blood was collected from the orbital sinus of mice and centrifuged at 3000 rpm for 10 min. The supernatant was extracted to measure the level of IL-17. All procedures were performed following the instructions of the ELISA kit.
(§4) Statistical analysis was performed using SPSS software, and the results were expressed as mean ± standard deviation. One-way ANOVA was used for intergroup comparisons. For data with homogeneous variance, the LSD test was used; for data with heterogeneous variance, the Dunnett-t test was used. A value of P < 0.05 was considered statistically significant.

[3] = tested on: psoriasis model mice; assay: Psoriasis experiment (imiquimod model): skin lesion (PASI) score; type: in vivo; details: for PASI scores: compared with the model group; for PASI score: day 8 of modeling, 0.2 g cream per mouse daily for 7 days (compounds 1 mg/g, fluticasone propionate 0.5 mg/g)
Procedure: as §1, §2, §3
Referring to the clinical Psoriasis Area and Severity Index (PASI) scoring criteria, erythema, scaling, and thickness at the skin lesion sites were evaluated on a 0-4 scale on day 8 of modeling, and the total score was obtained by summing the three items.
• (1) Erythema: a score of 0 points indicates no erythema, a score of 1 point indicates erythema appearing light red, a score of 2 points indicates erythema appearing red, a score of 3 points indicates erythema appearing dark red, and a score of 4 points indicates erythema appearing extremely deep red; • (2) Scaling: a score of 0 points indicates no scaling on the surface, a score of 1 point indicates partial skin lesions covered with scaling, a score of 2 points indicates most skin lesions covered with scaling, a score of 3 points indicates almost all skin lesions covered with scaling in layers, and a score of 4 points indicates all skin lesions covered with scaling; • (3) Thickness: a score of 0 points indicates skin lesions flush with normal skin, a score of 1 point indicates skin lesions slightly elevated above normal skin surface, a score of 2 points indicates moderate elevation of skin lesions, a score of 3 points indicates thickened skin lesions with obvious elevation, and a score of 4 points indicates highly thickened skin lesions with prominent elevation.
as §4

[4] = tested on: uveitis model rats; assay: Anti-uveitis pharmacodynamic experiment (LPS model): ocular pathological score; type: in vivo, male SD rats; details: for ocular abnormalities / ocular pathological score: compared with the model group
Procedure: Pharmacodynamic Experiment on Anti-Uveitis
Positive control drug: Fluorometholone Eye Drops (specification: 5 mL/5 mg; Santen Pharmaceutical (CHINA) Co., Ltd.; Lot No. : J20180068) was used as the positive control drug and stored at room temperature protected from light until use.
Fifty male SD rats underwent a one-week adaptive feeding period. […] Groups 2 to 5 were used to establish rat uveitis models by single subcutaneous injection of 1 mg/kg LPS (Salmonella; Sigma; Lot No. 0000164114) into the plantar tissue of the hindpaw. Salmonella endotoxin was dissolved in normal saline to prepare an injection solution at a concentration of 2 mg/mL, which was injected subcutaneously at 1 mg/kg into the plantar tissue of one paw of the rats. Group 1 was injected with an equal volume of normal saline.
At the end of the experiment, photos of the rats' eyes were taken using a slit-lamp microscope, and the differences in ocular lesions of rats among groups were compared and analyzed.
Statistical analysis was performed using SPSS software. Measurement data were expressed as mean ± standard deviation. One-way ANOVA was used for intergroup comparisons. For data with homogeneous variance, LSD test was used; for data with heterogeneous variance, Dunnett-t test was used. A value of P < 0.05 was considered statistically significant.

[5] = Pharmacokinetic (PK) experiment in rats; type: in vivo, male SD rats; details: same experimental conditions
Procedure: Pharmacological Example 11. Pharmacokinetic (PK) Experiment in Rats
The solution was prepared before administration.
Animals: 6 male SD rats, SPF grade (Beijing Vital River Laboratory Animal Technology Co., Ltd.).
Animal grouping: The animals were weighed prior to administration, and the dosage was calculated based on body weight. The animals in the oral administration group were fasted overnight (10-14 hours) before administration, and food was reintroduced 4 hours post-administration. Table 23. Animal grouping and drug administration dosages for pharmacokinetic (PK) experiment in rats
Blood collection time points: Blood was collected from the jugular vein at 2 min, 5 min, 15 min, 30 min, 1 h, 2 h, 4 h, 8 h, and 24 h after administration. Approximately 0.25 mL of blood was collected for each sample, anticoagulated with heparin sodium, and then placed on ice immediately.
Plasma sample processing: Blood samples were placed on ice after collection and centrifuged to separate plasma within 1 hour (centrifugation conditions: 6000 rpm, 3 minutes, 2-8 °C ). Plasma samples were stored in a -80°C freezer before analysis.
Data processing: Pharmacokinetic parameters were calculated using Phoenix WinNonlin 8.2.0 based on the plasma drug concentration data at different time points.

[6] = tested on: inflammatory cytokines IL-6 and IL-12; assay: Anti-asthma pharmacodynamic experiment: inflammatory cytokines in bronchoalveolar lavage fluid (ELISA); type: in vivo, female BALB/c mice; details: for Effects on inflammatory cytokines in bronchoalveolar lavage fluid of mice: compared with the model group
[7] = tested on: epidermal layer in rats; assay: Adverse reactions of continuous dermal administration: thickness of the epidermal layer (H&E sections); type: in vivo, SD rats; details: for Epidermal layer thickness (µm): 100 mg cream on the back twice a day for a week (compounds 1 mg/g, Compound Dexamethasone Acetate 0.75 mg/g); for thickness of the epidermal layer after continuous dermal administration: compared with the blank control group
Text: Pharmacological Example 10: Experiment on Adverse Reactions of Continuous Dermal Administration in Rats
Animals: SD rats, SPF grade, with an equal number of males and females, weighing 230-250 g.
Animal grouping: After adaptive feeding, the rats were randomly divided into 4 groups. […] One day before administration, the backs of rats were shaved at an area of 5 cm × 6 cm. […] The rats in the blank control group were applied with the blank matrix of corresponding mass on their backs, twice a day for a consecutive week. Table 21. Animal grouping and drug administration dosages for the experiment on adverse reactions of continuous dermal administration in rats
To examine the effects of continuous administration of the test samples on the epidermal layer, the back skin tissues were stained with hematoxylin and eosin (H&E) (magnification ×40), and the thickness of the epidermal layer was quantitatively measured based on the H&E-stained sections.

[8] = EC50 of agonist activity, HEK293 reporter cells, top concentration 50 µM, read-out: Nuclear receptor enzyme activity (nM) MR
[9] = bronchoalveolar lavage fluid, 0.3 mg/mL, 50 µL intratracheally once daily for 3 days

Row | Compound | EC50 [1, 8] | Target selectivity MR/GR [1] | level of IL-17 / inflammatory cytokines in psoriasis model mice [2] | IL-17 [2] | PASI scores [3] | PASI score [3] | Ocular pathological score ([4]; 1 mg/mL, 40 µL/eye, 3 times a day for 2 days) | ocular abnormalities / ocular pathological score [4] | pharmacokinetic properties (plasma clearance rate, systemic exposure) [5] | IL-6 [6, 9] | IL-12 [6, 9] | Effects on inflammatory cytokines in bronchoalveolar lavage fluid of mice [6] | Epidermal layer thickness (µm) [7] | thickness of the epidermal layer after continuous dermal administration [7] | target selectivity ([1]; MR/GR and PR/GR, same experimental conditions) | EC50 [1]
1 | C[C@]12C=CC(=O)C=C1CC[C@H]1[C@@H]3C[C@H]4OC(c5ccc(CSC6CCOC6=O)cc5)O[C@@]4(C(=O)CO)[C@@]3(C)C[C@H](O)[C@@]12Cl (stereo partly drawn) [Compound 23, (6aS,6bR,7S,8aS,8bS,11aR,12aS,12bS)-6b-Chloro-7-hydroxy-8b-(2-hydroxyacetyl)-6a,8a-dimethyl-10-(4-(((2-oxotetrahydrofuran-3-yl)thio)methyl)phenyl)-1,2,6a,6b,7,8,8a,8b,11a,12,12a,12b-do decahydro-4H-naphtho[2',1':4,5]indeno[1,2-d][1,3]dioxol-4-one] | > 50000 nM | > 2.4×10^5 | significantly decreased the level of IL-17 | 19.56 ± 8.13 pg/mL | PASI scores significantly decreased on day 7 | 3.8 ± 1.0 | 7.0 ± 0.5 | significantly improved the ocular abnormalities and reduced the ocular pathological score | pharmacokinetic properties similar to those of compound 8 | 11.1 ± 5.5 pg/mL | 7.0 ± 3.9 pg/mL | extremely significantly decreased the levels of IL-6 and IL-12 in mice | 24.3 ± 1.1 µm | no significant changes in the thickness of the epidermal layer were observed | – | –
2 | C[C@]12C=CC(=O)C=C1CC[C@H]1[C@@H]3C[C@H]4OC(c5ccc(CSC6CCOC6=O)cc5)O[C@@]4(C(=O)CO)[C@@]3(C)C[C@H](O)[C@@]12F (stereo partly drawn) [Compound 17, (6aS,6bR,7S,8aS,8bS,11aR,12aS,12bS)-6b-Fluoro-7-hydroxy-8b-(2-hydroxyacetyl)-6a,8a-dimethyl-10-(4-(((2-oxotetrahydrofuran-3-yl)thio)methyl)phenyl)-1,2,6a,6b,7,8,8a,8b,11a,12,12a,12b-do decahydro-4H-naphtho[2',1':4,5]indeno[1,2-d][1,3]dioxol-4-one] | > 50000 nM | > 1.7×10^5 | significantly decreased the level of IL-17 | 31.30 ± 14.99 pg/mL | PASI scores significantly decreased on day 7 | 4.5 ± 0.6 | – | significantly improved ocular abnormalities | pharmacokinetic properties similar to those of compound 8 | – | – | pharmacological effects similar to those of compound 23 | 23.5 ± 3.5 µm | no significant changes in the thickness of the epidermal layer were observed | – | –
3 | C[C@]12C=CC(=O)C=C1[C@@H](F)C[C@H]1[C@@H]3C[C@H]4OC(c5ccc(CSC6CCOC6=O)nc5)O[C@@]4(C(=O)CO)[C@@]3(C)C[C@H](O)[C@@]12F (stereo partly drawn) [Compound 46, (25,6aS,6bR,78,8a8,8bS,11aR,12a8,12b8S)-2,6b-Difluoro-7-hydroxy-8b-(2-hydroxyacetyl)-6a,8a-dimethyl-10-(6-(((2-oxotetrahydrofuran-3-yl)thio)methyl)pyridin-3-yl)-1,2,6a,6b,7,8,8a,8b,11a,12, 12a,12b-dodecahydro-4H-naphtho[2',1':4,5]indeno[1,2-d][1,3]dioxol-4-one] | – | – | significantly inhibited inflammatory cytokines in the skin of psoriasis model mice | – | significantly decreased PASI scores on day 7 | – | – | significantly improved ocular abnormalities | pharmacokinetic properties similar to those of compound 8 | – | – | pharmacological effects similar to those of compound 23 | – | no significant changes in the thickness of the epidermal layer observed | target selectivity comparable to that of compound 23 | –
4 | C[C@]12C=CC(=O)C=C1[C@@H](F)C[C@H]1[C@@H]3C[C@H]4OC(c5ccc(CSC6CCOC6=O)cc5)O[C@@]4(C(=O)SCF)[C@@]3(C)C[C@H](O)[C@@]12F (stereo partly drawn) [Compound 34, S-(Fluoromethyl) (2S,6aS,6bR,7S,8aS,8bS,11aR,12aS,12bS)-2,6b-difluoro-7-hydroxy-6a,8a-dimethyl-4-oxo-10-(4-( ((2-oxotetrahydrofuran-3-yl)thio)methyl)phenyl)-1,2,4,6a,6b,7,8,8a,11a,12,12a,12b-dodecahydro-8bH-naphtho[2',1':4,5]indeno[1,2-d][1,3]dioxole-8b-carbothioate] | – | > 5.0×10^5 | significantly inhibited inflammatory cytokines in the skin of psoriasis model mice | – | significantly decreased PASI scores on day 7 | – | – | significantly improved ocular abnormalities | pharmacokinetic properties similar to those of compound 8 | – | – | pharmacological effects similar to those of compound 23 | – | no significant changes in the thickness of the epidermal layer observed | – | > 50000 nM
5 | C[C@]12C=CC(=O)C=C1[C@@H](F)C[C@H]1[C@@H]3C[C@H]4OC(c5ccc(CSC6CCOC6=O)cc5)O[C@@]4(C(=O)OCF)[C@@]3(C)C[C@H](O)[C@@]12F (stereo partly drawn) [Compound 36, Fluoromethyl (2S,6aS,6bR,7S,8aS,8bS,11aR,12aS,12bS)-2,6b-difluoro-7-hydroxy-6a,8a-dimethyl-4-oxo-10-(4-( ((2-oxotetrahydrofuran-3-yl)thio)methyl)phenyl)-1,2,4,6a,6b,7,8,8a,11a,12,12a,12b-dodecahydro-8bH-naphtho[2',1':4,5]indeno[1,2-d][1,3]dioxole-8b-carboxylate] | – | > 4.2×10^5 | significantly inhibited inflammatory cytokines in the skin of psoriasis model mice | – | significantly decreased PASI scores on day 7 | – | – | significantly improved ocular abnormalities | pharmacokinetic properties similar to those of compound 8 | – | – | pharmacological effects similar to those of compound 23 | – | no significant changes in the thickness of the epidermal layer observed | – | > 50000 nM
